Test system: SHEP-MYCN-ER cells
Experiment: FUCCI high-content live-cell imaging of cell cycle-related cell-killing activity
Type: cell-based, Human
Settings: neuroblastoma SHEP-MYCN-ER cells with 200 nM 4-OHT (high MYCN), PC-002: 10 nM YM155, CHOP: 2 μM cyclophosphamide, 0.2 μM Doxorubicin, 8 nM vincristine, imaged every 20 min for 72 h
Protocol: Cultures were incubated at 37° C. in 5% CO2.
Mix each FUCCI Premo™ reagent (Thermo fisher, P36237) by inversion to ensure a homogenous solution. Add the mixed reagent to the SHEP-MYCN-ER cells in complete cell medium and mix gently. Return the cells to the culture incubator for over 16 hour.
High-content live-cell imaging analysis. After transfection, SHEP-MYCN-ER cells were incubated in complete cell medium with concentration indicated of different drugs (PC-002: 10 nM YM155, CHOP: 2 μM cyclophosphamide; 0.2 μM Doxorubicin; 8 nM vincristine). Cells were grown in Array Scan™ Live Cell Module and imaged every 20 min for 72 h under controlled growth conditions (CellInsight™ CX5 High-Content Screening (HSC) Platform, Thermo Fisher; Array Scan™ Live Cell Module, Thermo Fisher).
In the G1 phase of the cell cycle, geminin is broken down and only Cdtl tagged with RFP may be visualized, thus identifying cells in the G1 phase with red fluorescent nuclei. In the S, G2, and M phases, however, Cdt1 is degraded and only geminin tagged with GFP remains, thus identifying cells in these phases with green fluorescent nuclei. During the G1/S transition, both proteins are present in the cells, allowing GFP and RFP fluorescence to be observed—when green and red images are overlaid, the cells appear with yellow (orange) fluorescent nuclei. The dynamic color change from red-to-yellow, yellow-to-green or green-to-red represents the progression through cell cycle (live). The cell dead without color change represents the sensitivity to the drug (death).

1-(2-Methoxyethyl)-2-methyl-4,9-dioxo-3-(pyrazin-2-ylmethyl)-4,9-dihydro-1H-naphtho[2,3-d] imidazolium bromide [YM155]
cancer cell-killing activity in the G1 phase of the cell cycle (dead vs live cells) (FIG. 6A): not significantly
cancer cell-killing activity in the S/G2 phase of the cell cycle (dead vs live cells) (FIG. 6B): predominantly
cancer cell-killing activity in the M phase of the cell cycle (dead vs live cells) (FIG. 6C): not significantly

Source: US20230104800A1, “COMBINATION THERAPIES AND BIOMARKERS FOR TREATING CANCER” (priority 2020, published 2023)
